Values joined by “and” are separate entries in the source; they are usually repeats but may differ in a detail not shown here. Identical values can stand only once. “Also recorded” adds a separate entry of the source.
Legend:
[1] = system: HEL cells (human erythroleukemia cell line); assay: CellTiter-Lumi luminescence proliferation of naive HEL cells, 48 h; assay type: cell-based; conditions: for inhibition of proliferation of HEL cells (in words): 0.1-10 μM; for activity at 0.1 µM / activity at 0.3 µM / activity at 1 µM / activity at 3 µM / activity at 10 µM: Homo sapiens, 48 h, vs DMSO control, read-out: average proliferation rate of HEL cells
Method: (§1) HELs (Human erythroleukemia cell lines) and Ruxolitinib-resistant HEL cells were both cultured in a RPMI medium (Gibco) containing 20% heat-inactivated fetal bovine serum (Gibco) and 1% penicillin/streptomycin.
(§2) Ruxolitinib and other compounds were all purchased from Selleck, dissolved in DMSO with a stock solution concentration of 10 mM, and cryopreserved at −80° C. The working solution was diluted to a specified multiple using a RPMI medium and then used for treating cells. Ruxolitinib was specifically ruxolitinib phosphate.
(§3) To detect the antiproliferative effect of the inhibitor, the aforementioned cell lines were cultured at 3,000 cells/100 μL of the system per well, added with increasing concentrations of Ruxolitinib (concentration gradients of HEL cells: 0, 0.1, 1, 2.5, 5 μM; or 0, 0.1, 0.3, 1, 3, 10 μM), and added with DMSO to make up to the same amount. 4 parallel replicate groups were set up, and 3 blank wells (wells containing culture media without cells) were set up.
(§4) A calculation formula of the cell proliferation rate was: cell proliferation rate=(Luminescence value of the group added with the drug-average Luminescence value of the blank wells)/(Luminescence value of the DMSO control group-average Luminescence value of the blank wells)×100%.
In order to detect the effects of the compounds on the proliferation abilities of drug-resistant myeloproliferative neoplasm cells, the method was to treat the HEL naïve cell lines with increasing concentrations of Ruxolitinib and the compounds respectively, and to detect the proliferation of the cells by a CellTiter-Lumi™ luminescence method.

[2] = system: HEL^RE cells (Ruxolitinib-resistant HEL); assay: CellTiter-Lumi luminescence proliferation of Ruxolitinib-resistant HEL^RE cells, 48 h; assay type: cell-based, human; conditions: HEL^RE cells; for inhibition of proliferation of HEL^RE cells (in words): 0.1-10 μM; for activity at 0.1 µM / activity at 0.3 µM / activity at 1 µM / activity at 3 µM / activity at 10 µM: Homo sapiens, 48 h, vs DMSO control, read-out: average proliferation rate of HEL^RE cells
Excerpt: as §1
A Ruxolitinib-resistant HEL model, i.e., a HEL^RE model, was constructed by starting the addition of Ruxolitinib at a concentration lower than the IC50 of naïve cells and slowly incrementing the concentration to a high concentration, and preventing the cells from being killed. Our starting concentration was 0.1 μM. The drug was added upon occurrence of cell proliferation. The drug addition gradient was an increment at a multiple of 1.25, and the final concentration was 2.0 μM. Stable drug-resistant cells were obtained after 4-6 weeks.
as §2, §3, §4
A method for evaluating whether the model was successfully constructed was to compare the IC50s of resistant cells and naïve cells.
In order to detect the effects of five compounds on the proliferation abilities of drug-resistant myeloproliferative neoplasm cells, the method was to treat HEL^RE with increasing concentrations of Ruxolitinib and the five compounds respectively, and to detect the proliferation of the cells by a CellTiter-Lumi™ luminescence method.

[3] = system: HEL cells (human erythroleukemia cell line); assay: Annexin V-PI staining and flow cytometry, apoptosis of HEL cells, 24 h; assay type: cell-based; conditions: for promotion of apoptosis of HEL cells (in words): 0.1-10 μM
Method: • 1. the cell lines and inhibitors were the same as those in Example 1. • 2. detection of cell apoptosis
(§5) To detect the apoptosis-promoting effect of the inhibitors, HEL naïve cell strains were treated with Ruxolitinib and the compounds for 24 hours respectively (with concentrations of: 0, 0.1, 0.5, 1 μM or 0, 0.1, 0.3, 1, 3, 10 μM), and added with DMSO to make up to the same amount. 3 parallel replicate groups were set up, and cell apoptosis was detected by Annexin V and PI staining followed by flow cytometry.
(§6) A calculation formula of cell apoptosis rate was: cell apoptosis rate=the ratio of early apoptotic cells (Annexin V^+/PI^−)+the ratio of late apoptotic cells and necrotic cells (Annexin V^+/PI^+).

[4] = system: HEL^RE cells (Ruxolitinib-resistant HEL); assay: Annexin V-PI staining and flow cytometry, apoptosis of HEL^RE cells; assay type: cell-based, human; conditions: for average apoptosis rate of HEL-RE cells: 24 h; for promotion of apoptosis of HEL^RE cells (in words): 0.1-10 μM
Method: as §5, §6
In order to detect the effects of compounds on the abilities of drug-resistant myeloproliferative neoplasm cells, the method was to treat HEL^RE with increasing concentrations of Ruxolitinib and the compounds, and to detect cell apoptosis by Annexin V and PI staining followed by flow cytometry.

neuroblastoma cells = conditions: cited from earlier work
[5] = system: neuroblastoma mouse model; conditions: cited from earlier work
[6] = system: non-small cell lung cancer; conditions: non-small cell lung cancer patients, RP2D 275 mg per day; cited from earlier work
[7] = system: preclinical model including melanoma; conditions: cited from earlier work
[8] = orally once a week, RP2D 420 mg/m^2 (not exceeding 600 mg); cited from earlier work
[9] = system: progressive or metastatic solid tumors; conditions: RP2D 2.7 mg, cited from earlier work

COc1cc2ncnc(Oc3cccc(NC(=O)Nc4cc(C(C)(C)C(F)(F)F)on4)c3)c2cc1OC [Agerafenib]
inhibition of proliferation of HEL cells (in words) [1]: can successfully inhibit the proliferation of the HEL cells; also recorded: could inhibit the proliferation of the HEL cells, and this effect was increased with the increase of the drug concentration | activity at 0.1 µM [1]: 90.1 ± 3.01% | activity at 0.3 µM [1]: 93.8 ± 12.4% | activity at 1 µM [1]: 83.2 ± 4.45% | activity at 3 µM [1]: 70.3 ± 3.47% | activity at 10 µM [1]: 40.1 ± 8.26% | inhibition of proliferation of HEL^RE cells (in words) [2]: could inhibit the proliferation of the HEL^RE cells, and this effect was increased with the increase of the drug concentration | activity at 0.1 µM [2]: 4.26 ± 0.46% | activity at 0.3 µM [2]: 2.77 ± 0.43% | activity at 1 µM [2]: 2.75 ± 0.94% | activity at 3 µM [2]: 2.21 ± 0.04% | activity at 10 µM [2]: 1.86 ± 0.23% | average apoptosis rate of HEL cells ([3]; 0.1 μM): 4.41±0.630% and 4.41% | average apoptosis rate of HEL cells ([3]; 0.3 μM): 4.98±1.09% and 4.98% | average apoptosis rate of HEL cells ([3]; 1 μM): 3.42±0.140% and 3.42% | average apoptosis rate of HEL cells ([3]; 3 μM): 5.27% | average apoptosis rate of HEL cells ([3]; 10 μM): 5.43±0.720% and 5.43% | promotion of apoptosis of HEL cells (in words) [3]: could not promote apoptosis of the HEL cells | average apoptosis rate of HEL-RE cells ([4]; 0.1 μM): 7.05±0.920% and 7.05% | average apoptosis rate of HEL-RE cells ([4]; 0.3 μM): 5.33±0.430% and 5.33% | average apoptosis rate of HEL-RE cells ([4]; 1 μM): 5.11±0.210% and 5.11% | average apoptosis rate of HEL-RE cells ([4]; 3 μM): 7.37±0.220% and 7.37% | average apoptosis rate of HEL-RE cells ([4]; 10 μM): 8.22±0.390% and 8.22% | promotion of apoptosis of HEL^RE cells (in words) [4]: could not promote apoptosis of the HEL^RE cells | proliferation and colony formation of neuroblastoma cells (neuroblastoma cells; in vitro): able to inhibit the proliferation and colony formation of neuroblastoma cells in vitro | combination with traditional chemotherapy drugs (neuroblastoma cells; with traditional chemotherapy drugs): had a synergistic effect with traditional chemotherapy drugs | tumor growth and survival [5]: able to inhibit tumor growth of and prolong the survival of mice significantly | anti-tumor activity [6]: good anti-tumor activity

C[C@@H](NC(=O)c1ncnc(N)c1Cl)c1ncc(C(=O)Nc2cc(C(F)(F)F)c(Cl)cn2)s1 [MLN2480]
inhibition of proliferation of HEL cells (in words) [1]: could not inhibit the proliferation of the HEL cells | activity at 0.1 µM [1]: 98.5 ± 2.62% | activity at 0.3 µM [1]: 97.9 ± 3.55% | activity at 1 µM [1]: 97.3 ± 0.78% | activity at 3 µM [1]: 98.3 ± 0.65% | activity at 10 µM [1]: 97.6 ± 3.47% | inhibition of proliferation of HEL^RE cells (in words) [2]: could inhibit the proliferation of drug-resistant myeloproliferative neoplasm cells, and this effect was increased with the increase of the drug concentration | overall effectiveness among the compounds ([2]; proliferation and apoptosis taken together): more effective | activity at 0.1 µM [2]: 103 ± 8.58% | activity at 0.3 µM [2]: 75.1 ± 3.54% | activity at 1 µM [2]: 46.5 ± 9.45% | activity at 3 µM [2]: 18.9 ± 4.22% | activity at 10 µM [2]: 10.3 ± 0.49% | average apoptosis rate of HEL cells ([3]; 0.1 μM): 4.61±2.768% and 4.61% | average apoptosis rate of HEL cells ([3]; 0.3 μM): 3.85±0.101% and 3.85% | average apoptosis rate of HEL cells ([3]; 1 μM): 5.53±1.22% and 5.53% | average apoptosis rate of HEL cells ([3]; 3 μM): 10.04±2.663% and 10.04% | average apoptosis rate of HEL cells ([3]; 10 μM): 8.8±1.063% and 8.8% | promotion of apoptosis of HEL cells (in words) [3]: could not promote the apoptosis of myeloproliferative neoplasm cells | average apoptosis rate of HEL-RE cells ([4]; 0.1 μM): 6.54±0.560% and 6.54% | average apoptosis rate of HEL-RE cells ([4]; 0.3 μM): 7.80±0.900% and 7.80% | average apoptosis rate of HEL-RE cells ([4]; 1 μM): 10.9±0.390% and 10.9% | average apoptosis rate of HEL-RE cells ([4]; 3 μM): 15.5±0.580% and 15.5% | average apoptosis rate of HEL-RE cells ([4]; 10 μM): 13.8±0.775% and 13.8% | promotion of apoptosis of HEL^RE cells (in words) [4]: could promote apoptosis of Ruxolitinib-resistant myeloproliferative neoplasm cells, and this effect was increased with the increase of the drug concentration; also recorded: can promote the apoptosis of the HEL^RE cells | anti-tumor activity [7]: good anti-tumor activity | safety [8]: good safety and low toxic and side effects

CNS(=O)(=O)Nc1nccc(Cc2c(C)c3ccc(Oc4ncccn4)cc3oc2=O)c1F [RO5126766]
inhibition of proliferation of HEL cells (in words) [1]: can successfully inhibit the proliferation of the HEL cells; also recorded: could inhibit the proliferation of the HEL cells, and this effect increased with increase in the drug concentration | activity at 0.1 µM [1]: 85.8 ± 2.75% | activity at 0.3 µM [1]: 89 ± 13.5% | activity at 1 µM [1]: 83.4 ± 3.31% | activity at 3 µM [1]: 61.6 ± 3.79% | activity at 10 µM [1]: 47.1 ± 5.47% | inhibition of proliferation of HEL^RE cells (in words) [2]: could inhibit the proliferation of the HEL^RE cells, and this effect increased with increase in the drug concentration | activity at 0.1 µM [2]: 48.1 ± 3.37% | activity at 0.3 µM [2]: 41.4 ± 3.16% | activity at 1 µM [2]: 35.2 ± 2.89% | activity at 3 µM [2]: 31.5 ± 1.9% | activity at 10 µM [2]: 27.7 ± 2.34% | average apoptosis rate of HEL cells ([3]; 0.1 μM): 6.00±0.290% and 6.00% | average apoptosis rate of HEL cells ([3]; 0.3 μM): 6.96±1.16% and 6.96% | average apoptosis rate of HEL cells ([3]; 1 μM): 6.11±0.640% and 6.11% | average apoptosis rate of HEL cells ([3]; 3 μM): 8.32±2.69% and 8.32% | average apoptosis rate of HEL cells ([3]; 10 μM): 6.73±1.20% and 6.73% | promotion of apoptosis of HEL cells (in words) [3]: could not promote apoptosis of the HEL cells | average apoptosis rate of HEL-RE cells ([4]; 0.1 μM): 6.25±0.920% and 6.25% | average apoptosis rate of HEL-RE cells ([4]; 0.3 μM): 5.88±1.25% and 5.88% | average apoptosis rate of HEL-RE cells ([4]; 1 μM): 7.32±1.74% and 7.32% | average apoptosis rate of HEL-RE cells ([4]; 3 μM): 4.71±0.350% and 4.71% | average apoptosis rate of HEL-RE cells ([4]; 10 μM): 5.42±0.830% and 5.42% | promotion of apoptosis of HEL^RE cells (in words) [4]: could not promote apoptosis of the HEL^RE cells | anti-tumor activity ([9]; 4 consecutive days a week for 4 weeks): good anti-tumor activity | side effects [9]: tolerable side effects
